Each block holds one compound with its values, some of them ahead of it.
Experiments:
[1] = molecular target: XOR; details: read-out: Ki for the conversion of xanthine to uric acid; cited from earlier work
[2] = molecular target: T1, XOR (Bos taurus, UniProt P80457); assay: XOR kinetics with phenazine methosulfate / cytochrome c reduction (550 nm); type: biochemical, bovine; details: XOR, PMS
T1 construct: Bovine milk was obtained from the animal farm of the Nippon Veterinary and Life Science University; from tissue; host or cells: bovine milk
Experimental: Therefore, phenazine methosulfate was used to induce direct, rapid reoxidation of the molybdenum center ([22], [23]).
Bovine milk was obtained from the animal farm of the Nippon Veterinary and Life Science University. […] The dehydrogenase form of the enzyme (XDH) was obtained by reacting XO immediately upon purification with 5 mM DTT at pH 8.5, 25 °C for 1 h. XO and XDH assays were carried out at 25 °C under aerobic conditions. […] A total of 500 μM β-NAD^+ was added to the same reaction solution for XDH activity. Physiological conditions such as pH 7.4 (0.1 M potassium phosphate buffer (KPB), 0.2 mM EDTA) and the addition of 50 μM β-NADH were also used. […] In addition, the enzyme reaction solution was quenched with perchloric acid and neutralized with K2CO3, with products analyzed using HPLC as described below. Spectrophotometric data were analyzed using UV-Probe software Ver. 2.70 or LabSolutions UV-Vis Ver. […] Kinetic parameters were determined from nonlinear curve fits of raw data using GraphPad Prism 9 software.
A295 indicates the concentration of uric acid yielded by XOR. […] A295 indicates the concentration of uric acid yielded by XOR. Figure S2. The XOR inhibition mode of oxypurinol.A–G, Lineweaver-Burk plots were generated to visualize data and estimated the inhibition patterns. Data are representative of least two independent experiments. […] Figure S3. […] B, mode of inhibition of oxypurinol on the inosine degradation reaction of PNP. […] 0, 250, 375, 500, 750 and 1000 μM of oxypurinol were used. […] The rate of NAD^+ conversion to NADH was measured at A340 nm.

[3] = molecular target: T2, Purine nucleoside phosphorylase (PNP) (Homo sapiens, UniProt P00491); set-up: method as in PMID 5653179, PMID 121041; details: cited from earlier work
T2 construct: purchased Sigma-Aldrich; host or cells: E. coli
T2 sequence (P00491 1-289): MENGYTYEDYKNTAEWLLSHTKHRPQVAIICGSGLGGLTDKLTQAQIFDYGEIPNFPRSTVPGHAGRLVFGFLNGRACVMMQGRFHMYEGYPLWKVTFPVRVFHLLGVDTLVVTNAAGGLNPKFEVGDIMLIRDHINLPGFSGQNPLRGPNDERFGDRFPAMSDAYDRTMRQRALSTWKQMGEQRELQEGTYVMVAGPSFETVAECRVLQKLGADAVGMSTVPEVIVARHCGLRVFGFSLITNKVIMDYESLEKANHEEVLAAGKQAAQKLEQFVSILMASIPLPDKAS

T1 sequence (P80457 whole entry): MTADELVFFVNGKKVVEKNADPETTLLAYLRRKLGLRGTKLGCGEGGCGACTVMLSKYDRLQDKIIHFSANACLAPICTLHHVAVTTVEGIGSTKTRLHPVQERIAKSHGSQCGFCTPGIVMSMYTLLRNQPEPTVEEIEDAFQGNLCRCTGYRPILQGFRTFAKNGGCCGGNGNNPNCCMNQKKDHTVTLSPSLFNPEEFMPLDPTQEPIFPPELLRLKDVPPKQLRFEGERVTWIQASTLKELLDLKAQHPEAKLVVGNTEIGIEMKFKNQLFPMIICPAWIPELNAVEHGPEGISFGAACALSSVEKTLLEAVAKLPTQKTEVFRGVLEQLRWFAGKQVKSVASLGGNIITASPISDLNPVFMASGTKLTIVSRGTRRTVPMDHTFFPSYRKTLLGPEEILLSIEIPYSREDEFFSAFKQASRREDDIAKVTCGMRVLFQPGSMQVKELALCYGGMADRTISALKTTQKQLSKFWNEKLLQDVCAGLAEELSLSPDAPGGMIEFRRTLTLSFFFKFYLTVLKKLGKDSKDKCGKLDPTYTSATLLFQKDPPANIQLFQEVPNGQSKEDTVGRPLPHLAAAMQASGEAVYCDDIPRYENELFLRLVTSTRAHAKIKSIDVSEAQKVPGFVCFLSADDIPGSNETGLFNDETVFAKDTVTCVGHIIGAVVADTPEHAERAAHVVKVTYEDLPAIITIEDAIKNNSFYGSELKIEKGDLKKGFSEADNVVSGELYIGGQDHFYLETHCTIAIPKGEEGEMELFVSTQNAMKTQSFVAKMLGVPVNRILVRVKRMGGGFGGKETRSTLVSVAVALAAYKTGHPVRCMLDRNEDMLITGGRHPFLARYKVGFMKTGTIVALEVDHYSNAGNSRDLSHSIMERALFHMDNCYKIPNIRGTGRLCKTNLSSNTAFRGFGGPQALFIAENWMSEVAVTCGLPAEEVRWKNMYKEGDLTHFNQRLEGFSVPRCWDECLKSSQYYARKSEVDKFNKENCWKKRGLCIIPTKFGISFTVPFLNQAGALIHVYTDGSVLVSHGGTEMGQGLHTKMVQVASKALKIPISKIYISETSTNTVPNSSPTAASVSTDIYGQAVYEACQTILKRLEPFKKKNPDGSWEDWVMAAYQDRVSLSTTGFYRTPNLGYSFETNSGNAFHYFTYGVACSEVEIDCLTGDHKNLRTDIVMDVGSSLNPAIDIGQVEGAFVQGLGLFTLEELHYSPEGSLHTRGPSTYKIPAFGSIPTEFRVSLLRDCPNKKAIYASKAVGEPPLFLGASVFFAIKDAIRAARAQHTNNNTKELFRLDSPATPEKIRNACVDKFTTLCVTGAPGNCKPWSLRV

SMILES: COc1cc(-c2cnn3c(=O)nc[nH]c23)ccc1[S+]([O-])c1ccccc1 (stereo not shown) [BOF]
Ki [1]: < 0.01 µM

Types of inhibition ([2]; substrate hypoxanthine): Mixed | Types of inhibition ([2]; substrate xanthine): Mixed
SMILES: Cc1nc(-c2ccc(OCC(C)C)c(C#N)c2)sc1C(=O)O [Febuxostat]

SMILES: O=c1ncnc2n([C@H]3O[C@@H](CO)[C@H](O)[C@@H]3O)[nH]cc1-2 [ribosyl derivative]
Ki [3]: > 200 µM

Source: PMC10511816 (The Journal of Biological Chemistry, 2023)
